Where “and” joins values, the source holds several entries; their conditions need not be identical. Equal values may be shown once.
Assay: Example 2: phase 3 trial, enavogliflozin 0.3 mg vs dapagliflozin 10 mg once a day for 24 weeks added to metformin in patients with type 2 diabetes (same efficacy, exploratory and safety endpoints)
Type: in vivo, human
Details: for Change from baseline in total cholesterol, ANCOVA LS mean difference / Change from baseline in Total cholesterol, ANCOVA LS mean (SE) / Change from baseline in Total cholesterol, Mean (SD) / Change from baseline in total cholesterol, Median / fasting Total cholesterol, Mean (SD) / fasting Total cholesterol, Median: modified per-protocol set 1
Method: Subjects who met the inclusion/exclusion criteria were administered a placebo of the clinical trial drug under single-blind (subject blinding) conditions during a 2-week run-in period while continuing to receive metformin. […] The randomized subjects were administered two tablets of the clinical trial drug for each administration group once a day, and then visited the institution at weeks 6, 12, 18, and 24 during the 24-week administration period to conduct efficacy and safety evaluations.
• 1. Change in HbA1c at week 24 after administration of clinical trial drug compared to Visit 2 (randomization)
• 1. Change in HbA1c at each time point of weeks 6, 12, and 18 after administration of clinical trial drug compared to Visit 2 (randomization) • 2. Change in FPG at each time point of weeks 6, 12, 18, and 24 after administration of clinical trial drug compared to Visit 2 (randomization) • 3. Proportion of subjects achieving HbA1c<7% at each time point of weeks 6, 12, 18, and 24 after administration of clinical trial drug • 4. Proportion of subjects achieving HbA1c<6.5% at each time point of weeks 6, 12, 18, and 24 after administration of clinical trial drug • 5. Proportion of subjects achieving therapeutic response (HbA1c change (HbA1c at Visit 2-HbA1c at each evaluation time point)>0.5% or HbA1c<7% at each evaluation time point compared to Visit 2 (randomization)) at each time point of weeks 6, 12, 18 and 24 after administration of clinical trial drug
• 1. Change in fasting c-peptide at each time point of weeks 6, 12, 18, and 24 after administration of clinical trial drug compared to Visit 2 (randomization) • 2. Change in body weight at each time point of weeks 6, 12, 18, and 24 after administration of clinical trial drug compared to Visit 2 (randomization) • 3. Change in fasting lipid concentration (total cholesterol, LDL-C, HDL-C, and triglycerides) at each time point of weeks 6, 12, 18, and 24 after administration of clinical trial drug compared to Visit 2 (randomization) • 4. Changes in systolic or diastolic blood pressure at each time point of weeks 6, 12, 18, and 24 after administration of clinical trial drug compared to Visit 2 (randomization) • 5. Changes in β-cell function and insulin resistance measured by HOMA-β and HOMA-IR at each time point of weeks 6, 12, 18, and 24 after administration of clinical trial drug compared to Visit 2 (randomization) • 6. Changes in renal function-related indicators (UACR, UGCR) measured by UACR at each time point of weeks 6, 12, 18, and 24 after administration of clinical trial drug compared to Visit 2 (randomization) • 7. Changes in obesity-related indicators (adiponectin, leptin) at each time point of weeks 6, 12, 18, and 24 after administration of clinical trial drug compared to Visit 2 (randomization)

[1] = week 12, per-protocol set, enavogliflozin 0.3 mg, dapagliflozin 10 mg
[2] = week 18, listed as enavogliflozin
[3] = week 18, enavogliflozin 0.3 mg, dapagliflozin 10 mg
[4] = week 18, per-protocol set, enavogliflozin 0.3 mg vs dapagliflozin 10 mg
[5] = week 18, per-protocol set, enavogliflozin 0.3 mg, dapagliflozin 10 mg
[6] = week 24, listed as enavogliflozin
[7] = week 24, enavogliflozin 0.3 mg, dapagliflozin 10 mg
[8] = week 24, per-protocol set, enavogliflozin 0.3 mg vs dapagliflozin 10 mg
[9] = week 24, per-protocol set, enavogliflozin 0.3 mg, dapagliflozin 10 mg

## OC[C@H]1O[C@@H](c2cc(Cc3ccc(C4CC4)cc3)c(Cl)c3c2CCO3)[C@H](O)[C@@H](O)[C@@H]1O [Enavogliflozin, (2S,3R,4R,5S,6R)-2-(7-chloro-6 (4-cyclopropylbenzyl)-2,3-dihydrobenzofuran-4-yl)-6-(hydroxymethyl)tetrahydro-2H-pyran-3,4,5-triol]
[1]
  FPG, Median: 115.50 mg/dL
  HbA1c, Mean (SD): 6.97%
  HbA1c, Median: 6.83%
  Subjects achieving HbA1c target of <6.5%, (%): (15.96) %
  Subjects achieving therapeutic glycemic response, (%): (88.30) %
  body weight, Mean (SD): 67.44(11.05) kg
  body weight, Median: 65.70 kg
  fasting c-peptide, Mean (SD): 0.65(0.28) ng/mL
  fasting c-peptide, Median: 0.61 ng/mL
Week 18
  FPG change from baseline, LS mean (SE): −33.44(1.60) mg/dL
  HOMA-IR change from baseline, LS mean (SE): −1.79(0.11)
  HOMA-β change from baseline, LS mean (SE): 10.97(3.06)
  HbA1c change from baseline, LS mean (SE): −0.74(0.06) % p
  LDL-C change from baseline, LS mean (SE): 1.42(1.86) mg/dL
  Subjects achieving HbA1c target of <7%: (62.64) %
  Subjects achieving HbA1c<6.5%: 9.89%
  Subjects achieving therapeutic response (HbA1c change >0.5% or HbA1c<7%): 80.22%
  UACR change from baseline, LS mean (SE): −23.05(5.06) g/kg
  diastolic blood pressure change from baseline, LS mean (SE): −4.80(0.78) mmHg
  fasting c-peptide change from baseline, LS mean (SE): −0.07(0.18) ng/ml
  leptin change from baseline, LS mean (SE): −2.49(0.52) ng/mL
  systolic blood pressure change from baseline, LS mean (SE): -6.69 mmHg
Week 18, vs dapagliflozin
  FPG change from baseline, LS mean difference: -2.31 mg/dL
  HDL-C change from baseline, LS mean difference: -0.62 mg/dL
  HOMA-IR change from baseline, LS mean difference: −0.32
  HOMA-β change from baseline, LS mean difference: −2.53
  HbA1c change from baseline, LS mean difference: −0.05 % p
  LDL-C change from baseline, LS mean difference: -1.15 mg/dL
  Odds ratio for achieving HbA1c<6.5%: 0.31
  Odds ratio for achieving HbA1c<7%: 1.29
  Odds ratio for achieving therapeutic response: 1.58
  UACR change from baseline, LS mean difference: −10.10
  UGCR change from baseline, LS mean difference: 18.25 mg/mg
  body weight change from baseline, LS mean difference: 0.02 kg
  diastolic blood pressure change from baseline, LS mean difference: −0.70 mmHg
  fasting c-peptide change from baseline, LS mean difference: -0.02 ng/mL
  leptin change from baseline, LS mean difference: -1.26 ng/mL
  systolic blood pressure change from baseline, LS mean difference: −0.72 mmHg
  total cholesterol change from baseline, LS mean difference: -1.77 mg/dL
  triglyceride change from baseline, LS mean difference: -6.87 mg/dL
[2]
  Subjects achieving HbA1c target of <7%: 62.64%
  UGCR change from baseline, LS mean (SE): 60.97(2.13) mg/mg and 42.72(2.15) mg/mg
Week 18, enavogliflozin 0.3 mg vs dapagliflozin 10 mg
  Change from baseline in total cholesterol, ANCOVA LS mean difference: -1.77 mg/dL
[3]
  Change from baseline in Total cholesterol, ANCOVA LS mean (SE): 7.80(2.16) mg/dL
  Change from baseline in Total cholesterol, Mean (SD): 6.23(16.54) mg/dL
  Change from baseline in total cholesterol, Median: 6.00 mg/dL
  fasting Total cholesterol, Mean (SD): 156.99(32.54) mg/dL
  fasting Total cholesterol, Median: 149.00 mg/dL
[4]
  Change from baseline in FPG, ANCOVA LS mean difference: -2.31 mg/dL
  Change from baseline in HbA1c, ANCOVA LS mean difference: −0.05 % p
  Change from baseline in body weight, ANCOVA LS mean difference: 0.02 kg
  Change from baseline in fasting c-peptide, ANCOVA LS mean difference: -0.02 ng/mL
  Odds ratio for achieving HbA1c target of <6.5%, logistic regression model: 0.31
  Odds ratio for achieving therapeutic glycemic response, logistic regression model: 1.58
[5]
  Change from baseline in FPG, ANCOVA LS mean (SE): -33.44 mg/dL
  Change from baseline in FPG, Mean (SD): -31.78 mg/dL
  Change from baseline in FPG, Median: -31.00 mg/dL
  Change from baseline in HbA1c, ANCOVA LS mean (SE): −0.74 % p
  Change from baseline in HbA1c, Mean (SD): −0.71 % p
  Change from baseline in HbA1c, Median: −0.56 % p
  Change from baseline in body weight, ANCOVA LS mean (SE): −3.14(0.26) kg
  Change from baseline in body weight, Mean (SD): −3.17(2.68) kg
  Change from baseline in body weight, Median: -3.20 kg
  Change from baseline in fasting c-peptide, ANCOVA LS mean (SE): −0.08(0.02) ng/mL
  Change from baseline in fasting c-peptide, Mean (SD): −0.07(0.18) ng/mL
  Change from baseline in fasting c-peptide, Median: -0.07 ng/mL
  FPG, Mean (SD): 112.95 mg/dL
  FPG, Median: 113.00 mg/dL
  HbA1c, Mean (SD): 7.02%
  HbA1c, Median: 6.89%
  Subjects achieving HbA1c target of <6.5%, (%): (9.89) %
  Subjects achieving therapeutic glycemic response, (%): (80.22) %
  body weight, Mean (SD): 66.72(11.26) kg
  body weight, Median: 64.30 kg
  fasting c-peptide, Mean (SD): 0.65(0.24) ng/mL
  fasting c-peptide, Median: 0.61 ng/mL
Week 24
  FPG change from baseline, LS mean (SE): −32.53(1.76) mg/dL
  HOMA-IR change from baseline, LS mean (SE): −1.85(0.13)
  HOMA-β change from baseline, LS mean (SE): 6.94(3.17)
  HbA1c change from baseline, LS mean (SE): −0.80 % p
  HbA1c change from baseline, Mean (SD): −0.78 % p
  HbA1c, Mean: 6.98%
  LDL-C change from baseline, LS mean (SE): 1.64(1.92) mg/dL
  Subjects achieving HbA1c target of <7%: (61.05) %
  Subjects achieving HbA1c<6.5%: 13.68%
  Subjects achieving therapeutic response (HbA1c change >0.5% or HbA1c<7%): 78.95%
  UACR change from baseline, LS mean (SE): −24.29(3.38) g/kg
  UGCR change from baseline, LS mean (SE): 60.48(2.12) mg/mg
  diastolic blood pressure change from baseline, LS mean (SE): −5.41(0.65) mmHg
  fasting c-peptide change from baseline, LS mean (SE): −0.10(0.16) ng/ml
  leptin change from baseline, LS mean (SE): −2.40(0.51) ng/mL
Week 24, vs dapagliflozin
  FPG change from baseline, LS mean difference: -3.38 mg/dL
  HDL-C change from baseline, LS mean difference: -0.14 mg/dL
  HOMA-IR change from baseline, LS mean difference: −0.53
  HOMA-β change from baseline, LS mean difference: −4.99
  HbA1c change from baseline, LS mean difference: −0.04 % p
  LDL-C change from baseline, LS mean difference: 0.71 mg/dL
  Odds ratio for achieving HbA1c<6.5%: 0.40
  Odds ratio for achieving HbA1c<7%: 0.97
  Odds ratio for achieving therapeutic response: 1.30
  UACR change from baseline, LS mean difference: −6.93
  UGCR change from baseline, LS mean difference: 15.54 mg/mg
  body weight change from baseline, LS mean difference: -0.18 kg
  diastolic blood pressure change from baseline, LS mean difference: −1.15 mmHg
  fasting c-peptide change from baseline, LS mean difference: -0.06 ng/mL
  leptin change from baseline, LS mean difference: -1.12 ng/mL
  systolic blood pressure change from baseline, LS mean difference: 0.63 mmHg
  total cholesterol change from baseline, LS mean difference: 2.40 mg/dL
  triglyceride change from baseline, LS mean difference: 1.63 mg/dL
[6]
  HbA1c change from baseline, LS mean (SE): −0.80(0.06) % p
  HbA1c change from baseline, Mean (SD): −0.78(0.73) % p
  Subjects achieving HbA1c target of <7%: 61.05%
Week 24, enavogliflozin 0.3 mg vs dapagliflozin 10 mg
  Change from baseline in total cholesterol, ANCOVA LS mean difference: 2.40 mg/dL
[7]
  Change from baseline in Total cholesterol, ANCOVA LS mean (SE): 9.13(2.22) mg/dL
  Change from baseline in Total cholesterol, Mean (SD): 7.99(20.78) mg/dL
  Change from baseline in total cholesterol, Median: 11.00 mg/dL
  fasting Total cholesterol, Mean (SD): 159.42(32.17) mg/dL
  fasting Total cholesterol, Median: 157.00 mg/dL
[8]
  Change from baseline in FPG, ANCOVA LS mean difference: -3.38 mg/dL
  Change from baseline in body weight, ANCOVA LS mean difference: -0.18 kg
  Change from baseline in fasting c-peptide, ANCOVA LS mean difference: -0.06 ng/mL
  Odds ratio for achieving HbA1c target of <6.5%, logistic regression model: 0.40
  Odds ratio for achieving therapeutic glycemic response, logistic regression model: 1.30
[9]
  Change from baseline in FPG, ANCOVA LS mean (SE): -32.53 mg/dL
  Change from baseline in FPG, Mean (SD): -31.77 mg/dL
  Change from baseline in FPG, Median: -31.00 mg/dL
  Change from baseline in body weight, ANCOVA LS mean (SE): −3.77(0.33) kg
  Change from baseline in body weight, Mean (SD): −3.78(3.77) kg
  Change from baseline in body weight, Median: -3.60 kg
  Change from baseline in fasting c-peptide, ANCOVA LS mean (SE): −0.10(0.02) ng/mL
  Change from baseline in fasting c-peptide, Mean (SD): −0.10(0.16) ng/mL
  Change from baseline in fasting c-peptide, Median: -0.07 ng/mL
  FPG, Mean (SD): 113.58 mg/dL
  FPG, Median: 113.00 mg/dL
  Subjects achieving HbA1c target of <6.5%, (%): (13.68) %
  Subjects achieving therapeutic glycemic response, (%): (78.95) %
  body weight, Mean (SD): 66.39(10.90) kg
  body weight, Median: 64.40 kg
  fasting c-peptide, Mean (SD): 0.62(0.22) ng/mL
  fasting c-peptide, Median: 0.56 ng/mL

From patent publication US20260130933A1, “PHARMACEUTICAL COMPOSITION FOR PREVENTION OR TREATMENT OF NEPHROPATHY AND/OR DIABETES MELLITUS, COMPRISING ENAVOGLIFLOZIN” (DAEWOONG PHARMACEUTICAL CO., LTD., priority 2022, published 2026)
